Measured values published in PubChem BioAssay (NCI).
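Exposure lasted 48 hours, with cells grown in 96-well plates and compounds tested at five concentrations. Definition used: TGI = concentration required for complete inhibition of growth.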 Where a SMILES comes first, the peptide text is derived from it. [ ]: non-standard residue; d: D form. The star is where a group is joined. Chg = N[CH](C(=O)O)C1CCCCC1; Cbz = O=C(OCc1ccccc1)*; OBn = c1ccc(CO*)cc1

system: 786-0 renal; experiment: DTP human tumour cell line panel, 48 h

| Compound | TGI [µM] |
| --- | --- |
| COC(=O)C(NC(=O)C(CC(=O)OCc1ccccc1)NC(=O)OCc1ccccc1)C1CCCCC1 (stereo unspecified) (Cbz-Asp(OBn)-[Chg]-OMe; configuration not given here) | > 100 |
| OC[C@H]1C[C@@H]2Cc3ccccc3N2N1 | > 100 |
| Nc1c(N2CCCCC2)c(=O)nc2[nH]/c(=C\c3ccco3)c(=O)n12 | > 100 |
| Cc1[nH]n(-c2ncc(C#N)c(=O)[nH]2)c(=O)c1CCO | > 100 |

system: A498 renal; experiment: DTP human tumour cell line panel, 48 h

| Compound | TGI [µM] |
| --- | --- |
| OC[C@H]1C[C@@H]2Cc3ccccc3N2N1 | > 100 |
| COP(=O)(OC)/C(=C\C1=CN(C(c2ccccc2)(c2ccccc2)c2ccccc2)CN1)NC=O | 32.2 |
| Nc1c(N2CCCCC2)c(=O)nc2[nH]/c(=C\c3ccco3)c(=O)n12 | > 100 |
| Cc1[nH]n(-c2ncc(C#N)c(=O)[nH]2)c(=O)c1CCO | > 100 |

system: A549 NSCLC; experiment: DTP human tumour cell line panel, 48 h

| Compound | TGI [µM] |
| --- | --- |
| COC(=O)C(NC(=O)C(CC(=O)OCc1ccccc1)NC(=O)OCc1ccccc1)C1CCCCC1 (stereo unspecified) (Cbz-Asp(OBn)-[Chg]-OMe; configuration not given here) | > 100 |
| OC[C@H]1C[C@@H]2Cc3ccccc3N2N1 | > 100 |
| COP(=O)(OC)/C(=C\C1=CN(C(c2ccccc2)(c2ccccc2)c2ccccc2)CN1)NC=O | 30.5 |
| Nc1c(N2CCCCC2)c(=O)nc2[nH]/c(=C\c3ccco3)c(=O)n12 | > 100 |
| Cc1[nH]n(-c2ncc(C#N)c(=O)[nH]2)c(=O)c1CCO | > 100 |

system: ACHN renal; experiment: DTP human tumour cell line panel, 48 h

| Compound | TGI [µM] |
| --- | --- |
| COC(=O)C(NC(=O)C(CC(=O)OCc1ccccc1)NC(=O)OCc1ccccc1)C1CCCCC1 (stereo unspecified) (Cbz-Asp(OBn)-[Chg]-OMe; configuration not given here) | > 100 |
| OC[C@H]1C[C@@H]2Cc3ccccc3N2N1 | > 100 |
| COP(=O)(OC)/C(=C\C1=CN(C(c2ccccc2)(c2ccccc2)c2ccccc2)CN1)NC=O | 28.9 |
| Nc1c(N2CCCCC2)c(=O)nc2[nH]/c(=C\c3ccco3)c(=O)n12 | > 100 |
| Cc1[nH]n(-c2ncc(C#N)c(=O)[nH]2)c(=O)c1CCO | > 100 |

system: CAKI-1 renal; experiment: DTP human tumour cell line panel, 48 h

| Compound | TGI [µM] |
| --- | --- |
| COC(=O)C(NC(=O)C(CC(=O)OCc1ccccc1)NC(=O)OCc1ccccc1)C1CCCCC1 (stereo unspecified) (Cbz-Asp(OBn)-[Chg]-OMe; configuration not given here) | > 100 |
| OC[C@H]1C[C@@H]2Cc3ccccc3N2N1 | > 100 |
| COP(=O)(OC)/C(=C\C1=CN(C(c2ccccc2)(c2ccccc2)c2ccccc2)CN1)NC=O | 39.5 |
| Nc1c(N2CCCCC2)c(=O)nc2[nH]/c(=C\c3ccco3)c(=O)n12 | > 100 |
| Cc1[nH]n(-c2ncc(C#N)c(=O)[nH]2)c(=O)c1CCO | > 100 |

system: CCRF-CEM leukemia; experiment: DTP human tumour cell line panel, 48 h

| Compound | TGI [µM] |
| --- | --- |
| COC(=O)C(NC(=O)C(CC(=O)OCc1ccccc1)NC(=O)OCc1ccccc1)C1CCCCC1 (stereo unspecified) (Cbz-Asp(OBn)-[Chg]-OMe; configuration not given here) | > 100 |
| OC[C@H]1C[C@@H]2Cc3ccccc3N2N1 | > 100 |
| Nc1c(N2CCCCC2)c(=O)nc2[nH]/c(=C\c3ccco3)c(=O)n12 | > 100 |
| Cc1[nH]n(-c2ncc(C#N)c(=O)[nH]2)c(=O)c1CCO | > 100 |

system: COLO 205 colon; experiment: DTP human tumour cell line panel, 48 h

| Compound | TGI [µM] |
| --- | --- |
| COC(=O)C(NC(=O)C(CC(=O)OCc1ccccc1)NC(=O)OCc1ccccc1)C1CCCCC1 (stereo unspecified) (Cbz-Asp(OBn)-[Chg]-OMe; configuration not given here) | > 100 |
| OC[C@H]1C[C@@H]2Cc3ccccc3N2N1 | > 100 |
| COP(=O)(OC)/C(=C\C1=CN(C(c2ccccc2)(c2ccccc2)c2ccccc2)CN1)NC=O | 40.5 |
| Nc1c(N2CCCCC2)c(=O)nc2[nH]/c(=C\c3ccco3)c(=O)n12 | > 100 |
| Cc1[nH]n(-c2ncc(C#N)c(=O)[nH]2)c(=O)c1CCO | > 100 |

system: DU-145 prostate; experiment: DTP human tumour cell line panel, 48 h

| Compound | TGI [µM] |
| --- | --- |
| COC(=O)C(NC(=O)C(CC(=O)OCc1ccccc1)NC(=O)OCc1ccccc1)C1CCCCC1 (stereo unspecified) (Cbz-Asp(OBn)-[Chg]-OMe; configuration not given here) | > 100 |
| OC[C@H]1C[C@@H]2Cc3ccccc3N2N1 | > 100 |
| COP(=O)(OC)/C(=C\C1=CN(C(c2ccccc2)(c2ccccc2)c2ccccc2)CN1)NC=O | 35.2 |
| Nc1c(N2CCCCC2)c(=O)nc2[nH]/c(=C\c3ccco3)c(=O)n12 | > 100 |
| Cc1[nH]n(-c2ncc(C#N)c(=O)[nH]2)c(=O)c1CCO | > 100 |

system: EKVX NSCLC; experiment: DTP human tumour cell line panel, 48 h

| Compound | TGI [µM] |
| --- | --- |
| COC(=O)C(NC(=O)C(CC(=O)OCc1ccccc1)NC(=O)OCc1ccccc1)C1CCCCC1 (stereo unspecified) (Cbz-Asp(OBn)-[Chg]-OMe; configuration not given here) | > 100 |
| OC[C@H]1C[C@@H]2Cc3ccccc3N2N1 | > 100 |
| Nc1c(N2CCCCC2)c(=O)nc2[nH]/c(=C\c3ccco3)c(=O)n12 | > 100 |
| Cc1[nH]n(-c2ncc(C#N)c(=O)[nH]2)c(=O)c1CCO | > 100 |

system: HCC-2998 colon; experiment: DTP human tumour cell line panel, 48 h

| Compound | TGI [µM] |
| --- | --- |
| COC(=O)C(NC(=O)C(CC(=O)OCc1ccccc1)NC(=O)OCc1ccccc1)C1CCCCC1 (stereo unspecified) (Cbz-Asp(OBn)-[Chg]-OMe; configuration not given here) | > 100 |
| OC[C@H]1C[C@@H]2Cc3ccccc3N2N1 | > 100 |
| COP(=O)(OC)/C(=C\C1=CN(C(c2ccccc2)(c2ccccc2)c2ccccc2)CN1)NC=O | 38.4 |
| Cc1[nH]n(-c2ncc(C#N)c(=O)[nH]2)c(=O)c1CCO | > 100 |

system: HCT-116 colon; experiment: DTP human tumour cell line panel, 48 h

| Compound | TGI [µM] |
| --- | --- |
| COC(=O)C(NC(=O)C(CC(=O)OCc1ccccc1)NC(=O)OCc1ccccc1)C1CCCCC1 (stereo unspecified) (Cbz-Asp(OBn)-[Chg]-OMe; configuration not given here) | > 100 |
| OC[C@H]1C[C@@H]2Cc3ccccc3N2N1 | > 100 |
| COP(=O)(OC)/C(=C\C1=CN(C(c2ccccc2)(c2ccccc2)c2ccccc2)CN1)NC=O | 29.6 |
| Nc1c(N2CCCCC2)c(=O)nc2[nH]/c(=C\c3ccco3)c(=O)n12 | > 100 |
| Cc1[nH]n(-c2ncc(C#N)c(=O)[nH]2)c(=O)c1CCO | > 100 |

system: HCT-15 colon; experiment: DTP human tumour cell line panel, 48 h

| Compound | TGI [µM] |
| --- | --- |
| COC(=O)C(NC(=O)C(CC(=O)OCc1ccccc1)NC(=O)OCc1ccccc1)C1CCCCC1 (stereo unspecified) (Cbz-Asp(OBn)-[Chg]-OMe; configuration not given here) | > 100 |
| OC[C@H]1C[C@@H]2Cc3ccccc3N2N1 | > 100 |
| COP(=O)(OC)/C(=C\C1=CN(C(c2ccccc2)(c2ccccc2)c2ccccc2)CN1)NC=O | 33.1 |
| Nc1c(N2CCCCC2)c(=O)nc2[nH]/c(=C\c3ccco3)c(=O)n12 | > 100 |
| Cc1[nH]n(-c2ncc(C#N)c(=O)[nH]2)c(=O)c1CCO | > 100 |

system: HL-60(TB) leukemia; experiment: DTP human tumour cell line panel, 48 h

| Compound | TGI [µM] |
| --- | --- |
| COC(=O)C(NC(=O)C(CC(=O)OCc1ccccc1)NC(=O)OCc1ccccc1)C1CCCCC1 (stereo unspecified) (Cbz-Asp(OBn)-[Chg]-OMe; configuration not given here) | > 100 |
| OC[C@H]1C[C@@H]2Cc3ccccc3N2N1 | > 100 |
| COP(=O)(OC)/C(=C\C1=CN(C(c2ccccc2)(c2ccccc2)c2ccccc2)CN1)NC=O | 50.9 |
| Nc1c(N2CCCCC2)c(=O)nc2[nH]/c(=C\c3ccco3)c(=O)n12 | > 100 |

system: HOP-62 NSCLC; experiment: DTP human tumour cell line panel, 48 h

| Compound | TGI [µM] |
| --- | --- |
| COC(=O)C(NC(=O)C(CC(=O)OCc1ccccc1)NC(=O)OCc1ccccc1)C1CCCCC1 (stereo unspecified) (Cbz-Asp(OBn)-[Chg]-OMe; configuration not given here) | > 100 |
| OC[C@H]1C[C@@H]2Cc3ccccc3N2N1 | > 100 |
| COP(=O)(OC)/C(=C\C1=CN(C(c2ccccc2)(c2ccccc2)c2ccccc2)CN1)NC=O | 31.3 |
| Cc1[nH]n(-c2ncc(C#N)c(=O)[nH]2)c(=O)c1CCO | > 100 |

system: HOP-92 NSCLC; experiment: DTP human tumour cell line panel, 48 h

| Compound | TGI [µM] |
| --- | --- |
| COC(=O)C(NC(=O)C(CC(=O)OCc1ccccc1)NC(=O)OCc1ccccc1)C1CCCCC1 (stereo unspecified) (Cbz-Asp(OBn)-[Chg]-OMe; configuration not given here) | > 100 |
| OC[C@H]1C[C@@H]2Cc3ccccc3N2N1 | > 100 |
| COP(=O)(OC)/C(=C\C1=CN(C(c2ccccc2)(c2ccccc2)c2ccccc2)CN1)NC=O | 23 |
